# Source: paper PMC6128562, “Evaluation of cytotoxicity features of antimicrobial peptides with potential to control bacterial diseases of citrus” (PLoS ONE, 2018)
# Where no end group is shown, it is not given here.
# Key:
# [1] = tested on: human erythrocytes; conditions: cited from earlier work
# Excerpt: Ocellatin4 ([…]-NH(2)) is a cytolytic peptide obtained from skin secretion of the South American frog Leptodactylus ocellatus. The analogue of this peptide named as, Ocellatin4-analogue ([…]) has positive charge at its N-terminus (lysine residue), similarly to K^0-W^6-Hy-a1.
# [2] = tested on: Galleria mellonella larvae; assay: Toxicity in Galleria mellonella larvae; type: in vivo; conditions: for Median (%survival): over Experiments 1 and 2; for survival percentages of larvae: at 64 and 128 μM
# Description: The peptides citrus–amp1 and citrus–amp2 were selected for toxicity assay in G. mellonella. Larvae with 0.15 to 0.20 g were randomly selected for the experiments and were kept without food in Petri plates at 37°C in the dark for 24 h prior to use. Each larva was injected with 10 μL of peptides at 64 and 128 μM into the last proleg using a Hamilton micro-syringe. […] The larvae were incubated at 37°C and survival was evaluated daily for 7 days. Group of 8–9 larvae was used to each concentration of peptides and 10 μL of PBS was injected in the control group. Two independent experiments were performed.
# [3] = tested on: Methylobacterium sp.; type: cell-based; conditions: ND = higher than the concentrations evaluated
# Excerpt: (§1) Two important citrus pathogenic bacteria were addressed in our study: X.citri (isolate 306), the causal agent of citrus canker, and CaLas, causal agent of HLB. Since the latter cannot be cultivated in vitro, surrogates phylogenetically related to CaLas were used in the assays. The surrogates chosen were S. meliloti SEMIA 165 (= USDA 1002) and A. tumefaciens (GV3101/PMP90), provided by FEPAGRO (Fundação Estadual de Pesquisa Agropecuária) and by Dr. Janete Desidério, UNESP (Universidade Estadual Paulista, Jaboticabal, São Paulo, Brazil). The effect of the AMPs on Methylobacterium sp., an endophytic commonly found at citrus in Brazil and kindly provided by Dr. Wellington Luiz Araújo, Instituto de Ciências Biomédicas, Universidade de São Paulo, Brazil, was also assessed. Methylobacterium sp. and X.citri was cultured in NBY solid medium and then in NBY liquid medium according to Amaral et al. for 48 hours at 28°C and 180 rpm. S. meliloti and A. tumefaciens were grown in YM medium (Yeast Mannitol Medium) (0.5 g/L KH2PO4, 0.2 g/L MgSO4 7.H2O, 0.1g/L NaCl, 10 g/L mannitol, 0.5 g/L yeast extract, 9g/L agar, pH 6.8) and then in YM liquid medium for 48 hours at 28°C and 180 rpm. In addition to the in vitro assays, X.citri::GFP [35], obtained from Dr. Adrián A. Vojnov (Instituto de Ciencia y Tecnología Dr. Cesar Milstein, Fundación Pablo Cassará, Consejo Nacional de Investigaciones Científicas y Técnicas (CONICET), Buenos Aires / Argentina), was used for the in vivo assays.
# (§2) Antimicrobial peptide activity was performed in vitro using a microliter plate assay (96 well cell culture cluster—Costar®3599). Fifty microliters of inoculum at 10^4 CFU/mL prepared in PBS buffer (Phosphate buffered saline) was mixed with 50 μL of the peptide diluted in distilled water filter sterilized (dH2O). The final concentration of peptide evaluated ranged from 1–64 μM, and hylin-a1 and PBS were used as positive and negative control for AMP, respectively. […] Three replicates were prepared for each concentration evaluated.
# (§3) At the end of the growth incubation, minimum bactericidal concentration (MBC) for each organism was determined by serial dilution using the microdrop technique, as described elsewhere. The Petri dishes were maintained at 28°C for three days to obtain CFU/mL.
# [4] = tested on: Sinorhizobium meliloti SEMIA 165; type: cell-based; conditions: ND = higher than the concentrations evaluated; for MIC S. meliloti: microplate, inoculum 10^4 CFU/mL in PBS, peptide 1–64 μM, 595 nm, three replicates; for MBC S. meliloti: serial dilution, microdrop technique, 28°C three days
# Excerpt: as §1, §2, §3
# [5] = tested on: Xanthomonas citri subsp. citri (X.citri, isolate 306); type: cell-based; conditions: ND = higher than the concentrations evaluated
# Excerpt: as §1, §2, §3
# [6] = tested on: U87 MG cells; assay: Cytotoxicity in U87 MG cells (alamarBlue); type: cell-based, human; conditions: concentrations of 1–128 μM, 24 h
# Description: U87 MG, a human Glioblastoma cell line frequently used as a model for cytotoxicity evaluation was adopted in our study for the peptides citrus–amp1 and citrus–amp2. Cells were plated in 96 wells plate (5x10^4 cells per well), incubated overnight and maintained in a humidified atmosphere at 37°C and 5% CO2. After the incubation period, cells were treated with peptides varying from 1μM to 128 μM and then incubated for 24h. Untreated and cells treated with DMSO (dimethyl sulfoxide) were used as positive and negative control for the viability of U87 MG cells. Six replicates were done by each concentration.
# Cytotoxicity was performed using alamarBlue® cell viability reagent, a cell health indicator, through the reduction of […] of living cells. Viable cells convert Resazurin (blue) to resorufin, a compound that emits red fluorescent light. Alamar Blue medium was prepared by mixing medium with alamarBlue solution (Thermo Ficher Scientific) in a ratio of 10:1. After treatment with the peptides for 24 h, the medium was discarded, and Alamar Blue medium (100 μL) was transferred to a 96-well microplate. The microplates were incubated with Alamar Blue at 37°C for 4 h, and absorbance was measured using Epoch2 Microplate Reader (Biotek) in 570 nm. Cell viability was calculated using the ratio of the absorbance between treated and untreated cells and the data were expressed as percentages. […]
# [7] = tested on: tobacco leaves; conditions: 24 hpi; leaves started to dry out 12 hpi; cited from earlier work
# Description: The peptide Hylin-1 and PBS buffer were used as positive and negative controls of the phytotoxicity assay, respectively. At seven days post inoculation (7 dpi), visual evaluation was performed in detached leaves. […] Makovitzki et al. assessed the toxicity of peptide C14-KLLK in tobacco leaves.
# [8] = 64 µM, Experiment 1, 7 days, n=8–9 larvae
# [9] = 64 µM, Experiment 2, 7 days, n=8–9 larvae
# [10] = 128 µM, Experiment 1, 7 days, n=8–9 larvae
# [11] = 128 µM, Experiment 2, 7 days, n=8–9 larvae
# [12] = 10 μL of 64 μM injected, 37°C, 7 days, mean±SD of two experiments, 8–9 larvae
# [13] = 10 μL of 128 μM injected, 37°C, 7 days, mean±SD of two experiments, 8–9 larvae
# [14] = microplate, inoculum 10^4 CFU/mL in PBS, peptide 1–64 μM, 595 nm, three replicates
# [15] = serial dilution, microdrop technique, 28°C three days
Substance,"% survival [2, 8]","% survival [2, 9]",Median (%survival) ([2]; 64 µM),"% survival [2, 10]","% survival [2, 11]",Median (%survival) ([2]; 128 µM),"% survival [2, 12]","% survival [2, 13]",survival percentages of larvae [2],MIC S. meliloti [4],MBC S. meliloti [4],also measured
"GLLDFVTGVGKDIFAQLIKQI-NH(2) [ocellatin 4, cytolytic peptide from skin secretion of the frog Leptodactylus ocellatus]",,,,,,,,,,,,activity on human erythrocytes at [1]: 14.3 mmol/L
IETFLKQLRSAANKIVGL [Citrus-amp1],88.9%,88.9%,88.9%,100%,88.9%,94.5%,88.89 ± 0%,94.50 ± 7.85%,> 87%,,,
KIFGAIWPLALGALKNLIK [K^0-W^6-Hy-a1],,,,,,,,,,4 µM,62 µM,"MIC Met sp. [3, 14]: 4 µM; MBC Met sp. [3, 15]: 8 µM; MIC X.ciri [5, 14]: 2 µM; MBC X.ciri [5, 15]: 2 µM"
LESLASSAVRTANKARAKL [Citrus-amp2],100%,75%,87.5%,100%,87.5%,93.8%,87.50 ± 17.68%,93.75 ± 8.84%,> 87%,64 µM,64 µM,viability percentages of cells [6]: > 70%
mellittin,,,,,,,,,,,,toxicity in tobacco leaves at the inoculation point [7]: necrosis
